Results taken from patent US12172995B2, “Substituted indole and indazole compounds” (BRISTOL-MYERS SQUIBB COMPANY, priority 2018, dated 2024).

Assays:
Format in all cases: cell-based
[1] = biological target: T1, human TLR8 (Homo sapiens, UniProt Q9NR97); experiment: TLR8 inhibition reporter assay (HEK-Blue SEAP); details: HEK-Blue cells overexpressing human TLR8, stimulated with R848 15.9 μM, 22 hour incubation
T1 construct: host or cells: HEK-Blue cells
T1 sequence (Q9NR97 27-1041): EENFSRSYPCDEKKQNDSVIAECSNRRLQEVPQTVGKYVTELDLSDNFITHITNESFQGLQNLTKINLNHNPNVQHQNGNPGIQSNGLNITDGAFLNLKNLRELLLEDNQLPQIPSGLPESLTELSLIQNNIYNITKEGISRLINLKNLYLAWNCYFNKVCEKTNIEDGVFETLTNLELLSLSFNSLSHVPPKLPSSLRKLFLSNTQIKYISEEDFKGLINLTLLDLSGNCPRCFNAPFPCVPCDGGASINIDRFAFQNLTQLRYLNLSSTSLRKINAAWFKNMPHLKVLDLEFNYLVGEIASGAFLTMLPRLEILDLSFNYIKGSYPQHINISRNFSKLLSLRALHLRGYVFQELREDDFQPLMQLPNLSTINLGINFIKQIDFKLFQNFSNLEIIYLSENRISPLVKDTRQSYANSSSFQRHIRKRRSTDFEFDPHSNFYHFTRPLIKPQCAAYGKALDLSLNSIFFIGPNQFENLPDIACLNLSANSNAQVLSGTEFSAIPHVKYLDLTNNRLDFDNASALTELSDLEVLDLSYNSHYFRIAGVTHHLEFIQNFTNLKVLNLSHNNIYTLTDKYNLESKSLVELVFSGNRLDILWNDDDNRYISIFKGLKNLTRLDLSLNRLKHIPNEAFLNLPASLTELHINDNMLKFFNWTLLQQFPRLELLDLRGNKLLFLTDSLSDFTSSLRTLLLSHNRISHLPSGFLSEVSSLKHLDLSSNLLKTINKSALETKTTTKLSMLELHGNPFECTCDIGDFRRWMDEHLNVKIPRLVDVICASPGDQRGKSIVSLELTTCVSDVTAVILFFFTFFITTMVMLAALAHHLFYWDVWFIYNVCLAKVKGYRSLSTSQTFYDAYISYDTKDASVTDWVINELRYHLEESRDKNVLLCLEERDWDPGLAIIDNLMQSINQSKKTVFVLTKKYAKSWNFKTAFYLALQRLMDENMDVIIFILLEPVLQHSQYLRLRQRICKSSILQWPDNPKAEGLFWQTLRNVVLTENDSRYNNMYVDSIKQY
Procedure, shortened: (§1)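 HEK-Blue cells overexpressing human TLR7, TLR8 or TLR9 with an NF-κB/AP-1-driven SEAP reporter were pre-treated 30 min at room temperature with compound (0.05 nM to 50 μM), then stimulated with gardiquimod 7.5 μM (TLR7), R848 15.9 μM (TLR8) or ODN2006 5 nM (TLR9). SEAP measured after 22 h at 37° C; inhibition normalized between agonist-plus-DMSO and reference-inhibitor wells.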

[2] = biological target: T2, human TLR9 (Homo sapiens, UniProt Q9NR96); experiment: TLR9 inhibition reporter assay (HEK-Blue SEAP); details: HEK-Blue cells overexpressing human TLR9, stimulated with ODN2006 5 nM, 22 hour incubation
T2 construct: host or cells: HEK-Blue cells
T2 sequence (Q9NR96 26-1032): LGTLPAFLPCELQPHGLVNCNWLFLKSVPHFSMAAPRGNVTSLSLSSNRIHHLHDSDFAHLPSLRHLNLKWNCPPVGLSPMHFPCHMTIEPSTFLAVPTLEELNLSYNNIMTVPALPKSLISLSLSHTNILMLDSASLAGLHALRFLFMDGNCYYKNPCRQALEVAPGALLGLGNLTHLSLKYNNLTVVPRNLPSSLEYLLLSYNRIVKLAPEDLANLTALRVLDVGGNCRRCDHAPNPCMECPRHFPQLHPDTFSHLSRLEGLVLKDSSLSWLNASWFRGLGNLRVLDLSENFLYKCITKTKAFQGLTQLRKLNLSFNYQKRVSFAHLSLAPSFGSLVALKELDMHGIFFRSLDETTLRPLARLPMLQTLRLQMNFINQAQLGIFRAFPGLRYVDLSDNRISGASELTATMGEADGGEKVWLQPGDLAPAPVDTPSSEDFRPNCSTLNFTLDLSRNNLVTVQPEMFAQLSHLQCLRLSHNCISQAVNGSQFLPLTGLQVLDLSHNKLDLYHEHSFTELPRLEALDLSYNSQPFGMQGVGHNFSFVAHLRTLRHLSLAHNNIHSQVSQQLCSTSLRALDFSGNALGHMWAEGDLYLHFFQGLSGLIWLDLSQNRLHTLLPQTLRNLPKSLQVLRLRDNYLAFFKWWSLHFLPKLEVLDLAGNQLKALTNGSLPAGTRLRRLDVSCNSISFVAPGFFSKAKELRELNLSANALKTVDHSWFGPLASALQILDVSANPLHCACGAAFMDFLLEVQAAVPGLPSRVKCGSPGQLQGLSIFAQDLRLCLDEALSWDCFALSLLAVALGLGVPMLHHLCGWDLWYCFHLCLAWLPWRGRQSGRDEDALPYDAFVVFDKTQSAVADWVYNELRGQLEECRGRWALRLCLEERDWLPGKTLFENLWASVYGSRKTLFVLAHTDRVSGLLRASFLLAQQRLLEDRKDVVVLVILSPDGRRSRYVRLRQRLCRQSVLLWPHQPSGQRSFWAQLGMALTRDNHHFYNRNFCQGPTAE
Procedure, shortened: as §1

[3] = biological target: T3, human TLR7 (Homo sapiens, UniProt Q9NYK1); experiment: TLR7 inhibition reporter assay (HEK-Blue SEAP); details: HEK-Blue cells overexpressing human TLR7, stimulated with gardiquimod 7.5 μM, 22 hour incubation
T3 construct: host or cells: HEK-Blue cells
T3 sequence (Q9NYK1 27-1049): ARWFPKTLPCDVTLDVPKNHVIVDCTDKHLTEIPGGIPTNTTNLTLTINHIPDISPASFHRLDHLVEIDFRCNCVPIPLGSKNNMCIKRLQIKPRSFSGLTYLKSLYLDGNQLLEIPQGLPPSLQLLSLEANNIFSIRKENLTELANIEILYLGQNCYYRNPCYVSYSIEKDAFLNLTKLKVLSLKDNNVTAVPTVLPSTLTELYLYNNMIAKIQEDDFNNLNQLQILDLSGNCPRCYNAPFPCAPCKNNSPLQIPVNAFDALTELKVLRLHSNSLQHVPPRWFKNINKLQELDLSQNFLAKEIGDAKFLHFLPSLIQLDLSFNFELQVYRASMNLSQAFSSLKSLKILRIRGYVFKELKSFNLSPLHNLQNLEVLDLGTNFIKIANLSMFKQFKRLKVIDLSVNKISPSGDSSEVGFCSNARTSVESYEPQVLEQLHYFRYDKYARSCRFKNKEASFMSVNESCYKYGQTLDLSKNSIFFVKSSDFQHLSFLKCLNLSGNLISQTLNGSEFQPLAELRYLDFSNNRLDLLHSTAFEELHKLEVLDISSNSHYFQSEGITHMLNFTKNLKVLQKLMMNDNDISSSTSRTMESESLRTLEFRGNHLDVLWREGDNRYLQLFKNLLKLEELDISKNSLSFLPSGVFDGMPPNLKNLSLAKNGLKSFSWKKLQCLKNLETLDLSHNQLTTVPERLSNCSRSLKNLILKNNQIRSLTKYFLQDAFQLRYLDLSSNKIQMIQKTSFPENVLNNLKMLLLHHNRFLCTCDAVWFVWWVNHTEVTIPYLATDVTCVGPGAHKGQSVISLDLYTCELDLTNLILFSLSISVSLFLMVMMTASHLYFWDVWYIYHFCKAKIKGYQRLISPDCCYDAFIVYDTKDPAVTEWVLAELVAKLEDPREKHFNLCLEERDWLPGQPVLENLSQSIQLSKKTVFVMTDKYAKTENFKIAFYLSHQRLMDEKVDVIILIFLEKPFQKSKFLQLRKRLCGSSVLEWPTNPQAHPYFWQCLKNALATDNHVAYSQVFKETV
Procedure, shortened: as §1

CCc1cc2c(C3CCC(NCC(=O)N(C)C)CC3)n[nH]c2cc1-c1cc(C)c2ncnn2c1 (stereo not drawn) [Example 96, 2-((4-(5-ethyl-6-(8-methyl-[1,2,4]triazolo[1,5-a]pyridin-6-yl)-1H-indazol-3-yl)cyclohexyl)amino)-N,N-dimethylacetamide] showed an IC50 [1] of 0.2 nM, an IC50 [2] of 16000 nM and an IC50 [3] of 3 nM.
